The target of one test is T1, human LXR alpha (Homo sapiens, UniProt Q13133).
T1 construct: human LXR alpha (aa 164 to 447); unspecified tag ('tagged versions'); made in house; host or cells: E. coli BL21 (pLysS)
T1 sequence (Q13133 164-447): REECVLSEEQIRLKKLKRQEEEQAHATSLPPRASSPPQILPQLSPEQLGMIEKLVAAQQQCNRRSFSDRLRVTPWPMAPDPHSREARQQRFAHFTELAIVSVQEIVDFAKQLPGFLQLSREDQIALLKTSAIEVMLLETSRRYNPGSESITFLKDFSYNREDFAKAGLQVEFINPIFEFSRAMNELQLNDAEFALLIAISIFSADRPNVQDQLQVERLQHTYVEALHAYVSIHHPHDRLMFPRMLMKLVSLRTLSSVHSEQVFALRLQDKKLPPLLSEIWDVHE
The test can be described thus: Radioligand binding assay (SPA), LXR alpha LBD. Particulars: radioligand displacement, LXRα-LBD on SPA beads; read-out: LXRalpha Binding IC50. The method, then: (§1) The following tests were carried out in order to determine the activity of the compounds of the present invention. Background information on the performed assays can be found in: Nichols J S et al. “Development of a scintillation proximity assay for peroxisome proliferator-activated receptor gamma ligand binding domain”, Anal Biochem. 1998, 257: 112-119.
(§2) Mammalian expression vectors were constructed to express full-length human LXR alpha and LXR beta. Bacterial expression vectors were constructed to produce tagged versions of the ligand binding domains (LBD) of human LXR alpha (aa 164 to 447) and human LXR beta (aa 155 to 460). To accomplish this, the portions of the sequences encoding the LBDs were amplified from the full-length clones by PCR and then subcloned into the plasmid vectors. Final clones were verified by DNA sequence analysis (Willy et al., Genes Dev. 1995, 9:1033-45; Song et al., Proc Natl Acad Sci USA. 1994, 91:10809-13).
(§3) Induction, expression, and purification of LBD proteins were performed in E. coli strain BL21 (pLysS) cells by standard methods (Ref: Current Protocols in Molecular Biology, Wiley Press, edited by Ausubel et al).
(§4) Radioligand Binding Assay
(§5) LXR alpha and LXR beta receptor binding were assayed in buffer consisting of 50 mM HEPES, pH 7.4, 10 mM NaCl, 5 mM MgCl2. For each 96-well reaction, 500 ng of LXRα-LBD or 700 ng of LXR beta-LBD proteins were bound to 80 μg or 40 μg SPA beads respectively, in a final volume of 50 μl by shaking. The resulting slurry was incubated for 1 h at RT and centrifuged for 2 min at 1300×g. The supernatant containing unbound protein was removed, and the semi-dry pellet containing the receptor-coated beads was re-suspended in 50 μl of buffer. Radioligand (eg. 100,000 dpm of (N-(2,2,2-trifluoroethyl)-N-[4-(2,2,2-trifluoro-1-hydroxy-1-trifluoromethylethyl)-phenyl]-benzenesulfonamide)) was added, and the reaction incubated at RT for 1 h in the presence of test compounds, and then scintillation proximity counting was performed. All binding assays were performed in 96-well plates and the amount of bound ligand was measured on a Packard TopCount using OptiPlates (Packard). Dose response curves were measured within a range of concentration from 10^−10 M to 10^−4 M.
(In general: Loss of bound radioactivity is the signal in a displacement assay; it reports binding, not function.)

A further test deals with T2, human LXR beta (Homo sapiens, UniProt P55055).
T2 construct: human LXR beta (aa 155 to 460); unspecified tag ('tagged versions'); made in house; host or cells: E. coli BL21 (pLysS)
T2 sequence (P55055 155-460): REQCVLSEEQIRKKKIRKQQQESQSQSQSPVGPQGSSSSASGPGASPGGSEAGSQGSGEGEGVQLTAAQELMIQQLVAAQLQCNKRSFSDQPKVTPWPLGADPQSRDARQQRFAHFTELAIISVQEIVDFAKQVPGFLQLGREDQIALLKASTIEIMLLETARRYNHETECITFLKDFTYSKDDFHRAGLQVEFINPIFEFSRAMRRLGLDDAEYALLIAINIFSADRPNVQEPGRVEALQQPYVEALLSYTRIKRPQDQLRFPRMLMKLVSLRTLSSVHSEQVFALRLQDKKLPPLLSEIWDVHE
The test can be described thus: Radioligand binding assay (SPA), LXR beta LBD. Particulars: radioligand displacement, LXR beta-LBD on SPA beads; read-out: LXRbeta Binding IC50. As for the experimental part:
as §1, §2, §3, §4, §5

Broadly, the IC50 is the concentration needed to halve the response being measured. `CS(=O)(=O)c1cccc(-c2cccc(C3CN(S(=O)(=O)c4ccccc4)CC(=O)N3c3ccccc3)c2)c1` (centres unmarked) [Example 33, 4-Benzenesulfonyl-6-(3′-methanesulfonyl-biphenyl-3-yl)-1-phenyl-piperazin-2-one]: the values for the IC50 at human LXR alpha and at human LXR beta were 52.7 µM and 0.53 µM, respectively.

Consider `CS(=O)(=O)c1cccc(-c2cccc(C3CN(S(=O)(=O)c4ccccc4)CCN3c3ccccc3)c2)c1` (centres unmarked) [Example 34, 4-Benzenesulfonyl-2-(3′-methanesulfonyl-biphenyl-3-yl)-1-phenyl-piperazine], for which the IC50 came out at 0.056 µM on human LXR alpha and 0.002 µM at human LXR beta.

Regarding `NCc1cccc(-c2cccc(C3CN(S(=O)(=O)c4ccccc4)CCN3c3ccccc3)c2)c1` (centres unmarked) [Example 35, C-[3′-(4-Benzenesulfonyl-1-phenyl-piperazin-2-yl)-biphenyl-3-yl]-methylamine], the IC50 on human LXR alpha amounted to 2.62 µM; at human LXR beta, 0.425 µM.

For `Cc1ccc(C)c(-c2cccc(C3CN(C(=O)OC(C)(C)C)CCC3c3ccccc3)c2)c1` (stereo not drawn) [Example 40, trans-3-(2′,5′-Dimethyl-biphenyl-3-yl)-4-phenyl-piperidine-1-carboxylic add tert-butyl ester], the IC50 came out at 44.1 µM at human LXR alpha and 19.3 µM at human LXR beta.

`Cc1ccccc1N1CCN(C(=O)OC(C)(C)C)CC1c1cccc(-c2cccc(S(C)(=O)=O)c2)c1` (centres unmarked) [Example 48, 3-(3′-Methanesulfonyl-biphenyl-3-yl)-4-o-tolyl-piperazine-1-carboxylic acid tert-butyl ester]: the IC50 on human LXR alpha turned out to be 5.53 µM; on human LXR beta it was 0.355 µM.

Regarding `Cc1ccccc1N1CCN(C(=O)OC(C)(C)C)CC1c1cccc(-c2cncc(S(C)(=O)=O)c2)c1` (centres unmarked) [Example 49, 3-[3-(5-Methanesulfonyl-pyridin-3-yl)-phenyl]-4-o-tolyl-piperazine-1-carboxylic acid tert-butyl ester], the IC50 at human LXR alpha worked out at 8.88 µM; on human LXR beta, 3.75 µM.

As to `Cc1ccccc1N1CCN(S(=O)(=O)c2ccccc2)CC1c1cccc(-c2cccc(S(C)(=O)=O)c2)c1` (centres unmarked) [Example 50, 4-Benzenesulfonyl-2-(3′-methanesulfonyl-biphenyl-3-yl)-1-o-tolyl-piperazine], the IC50 on human LXR alpha amounted to 12.3 µM; at human LXR beta it was 0.165 µM.

Values taken from patent US8063088B2 (Hoffmann-La Roche Inc., priority 2008, dated 2011).
